The values below come from PubChem BioAssay (NCI).

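Compound exposure: 48 hours, 5 concentrations, 96-well plates. The concentration for 50% growth inhibition is given as GI50. TGI: concentration producing complete growth inhibition.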 Where a SMILES comes first, the peptide text is derived from it.

Test systems include 786-0 renal; A498 renal; IGROV1 ovarian; LOX IMVI melanoma; NCI-H460 lung; RXF 393 renal; U251 CNS; UACC-62 melanoma; HCC-2998 colon; HL-60(TB) leukemia.
What all share (assay): NCI anticancer screen, dose series, 48 h

Take `COC1C(OC(=O)/C=C/C=C/C=C/C=C\C(=O)O)CCC2(CO2)C1C1(C)OC1CC=C(C)C` (stereo not given): the GI50 in the experiment with 786-0 renal, in the experiment on A498 renal, in the experiment with IGROV1 ovarian, in the experiment with LOX IMVI melanoma, in the experiment with NCI-H460 lung and with RXF 393 renal was above 200 µM in each case. Besides, the GI50 in the experiment on U251 CNS and in the experiment with UACC-62 melanoma was above 200 µM each time. In addition, the TGI with 786-0 renal, in the experiment on A498 renal, in the experiment on IGROV1 ovarian, in the experiment with LOX IMVI melanoma, in the experiment with NCI-H460 lung and in the experiment on RXF 393 renal was above 200 µM in each case. For the same compound, the TGI with U251 CNS and with UACC-62 melanoma was above 200 µM in each case.

As for `Oc1cccc(/C=N/Nc2nnc(N/N=C/c3cccc(O)c3)c3ccccc23)c1`, the TGI in the experiment on 786-0 renal was 38.5 µM; in the experiment with IGROV1 ovarian, 47.7 µM; in the experiment on LOX IMVI melanoma, 34.1 µM; in the experiment on NCI-H460 lung, above 100 µM; in the experiment with RXF 393 renal, above 100 µM; in the experiment with U251 CNS it was 29.6 µM. This compound also returned a TGI with UACC-62 melanoma of 30.2 µM.

For `CC1C[C@]2(C[C@@H](C)C(=O)O2)O[C@@H]2CC3(C)[C@@H]4CCC5C(C)(C)OC(=O)C[C@H]6OO[C@]4(CC[C@]3(C)C12)CC56O` (stereo not given in full), the TGI in the experiment with 786-0 renal, in the experiment with HCC-2998 colon, with HL-60(TB) leukemia, with IGROV1 ovarian, in the experiment with LOX IMVI melanoma and in the experiment on NCI-H460 lung was above 100 µM throughout. In addition, the TGI in the experiment on RXF 393 renal, in the experiment on U251 CNS and in the experiment on UACC-62 melanoma was above 100 µM each time.

With `O=[N+]([O-])c1ccc(/C=C/c2csnn2)cc1`, the TGI in the experiment on 786-0 renal, in the experiment on HCC-2998 colon, with HL-60(TB) leukemia, in the experiment on IGROV1 ovarian, in the experiment on LOX IMVI melanoma and with NCI-H460 lung was above 100 µM in each case. The TGI in the experiment on RXF 393 renal, with U251 CNS and with UACC-62 melanoma was above 100 µM in each case.

Turning to `O=C1Nc2ccccc2/C1=C\c1nc(C2CCN(S(=O)(=O)c3ccc(F)cc3)CC2)n2ccccc12`, the GI50 with 786-0 renal was 2.37 µM; in the experiment on A498 renal, 17.1 µM; with HCC-2998 colon it was above 100 µM; with HL-60(TB) leukemia it was above 100 µM; in the experiment with IGROV1 ovarian, 2.69 µM; in the experiment with LOX IMVI melanoma, 2.58 µM. The GI50 in the experiment on NCI-H460 lung was 9.97 µM; with U251 CNS it was 2.53 µM. The TGI in the experiment with 786-0 renal was 6.71 µM; with A498 renal it was above 100 µM; with HCC-2998 colon it was above 100 µM; in the experiment with HL-60(TB) leukemia it was above 100 µM; in the experiment with IGROV1 ovarian, above 100 µM; in the experiment with LOX IMVI melanoma it was above 100 µM. The results for the TGI with NCI-H460 lung and with U251 CNS were above 100 µM and 11.4 µM, respectively.

Consider `NC(=O)N/N=C(/Cc1nc2ccc(C(=O)c3ccccc3)cc2[nH]c1=O)C(=O)Nc1ccc(C(F)(F)F)cc1[N+](=O)[O-]`, for which the TGI with 786-0 renal, with A498 renal, in the experiment on HCC-2998 colon, with HL-60(TB) leukemia, in the experiment with IGROV1 ovarian and in the experiment with LOX IMVI melanoma was above 100 µM throughout. The TGI in the experiment on NCI-H460 lung, with U251 CNS and in the experiment on UACC-62 melanoma was above 100 µM throughout.

Consider `C=C1C2CC(OC(C)=O)C3(C)C(c4ccoc4)OC(=O)[C@@H](O)[C@]13OC1C[C@H](OC(C)=O)C(C)(C)[C@H](CC(=O)OC)[C@]12C` (stereo not given in full), for which the TGI in the experiment with 786-0 renal, in the experiment with A498 renal, with HCC-2998 colon, in the experiment on HL-60(TB) leukemia, with IGROV1 ovarian and in the experiment on LOX IMVI melanoma was above 100 µM in each case. Moreover, the TGI in the experiment on NCI-H460 lung, in the experiment with U251 CNS and in the experiment with UACC-62 melanoma was above 100 µM throughout.

As for `CCOC(=O)[C@H]1Nc2ccc([N+](=O)[O-])cc2C2c3ccccc3CC21` (stereo not given in full), the TGI in the experiment with 786-0 renal is 43.9 µM; with HCC-2998 colon, 44.2 µM; in the experiment on IGROV1 ovarian it was above 100 µM; in the experiment on LOX IMVI melanoma, 33.2 µM; in the experiment on NCI-H460 lung it was 44.7 µM; in the experiment on RXF 393 renal, 18.3 µM. Besides, the TGI with U251 CNS came to 33.1 µM; in the experiment on UACC-62 melanoma, 30.6 µM.

In the case of `CC1=C(C(=O)Nc2ccc([N+](=O)[O-])cc2)C(c2ccc3c(c2)OCO3)C(C(=O)Nc2ccc([N+](=O)[O-])cc2)=C(C)N1`, the TGI with 786-0 renal is above 100 µM; in the experiment on A498 renal, 69.1 µM; in the experiment with HCC-2998 colon, 57.4 µM; with IGROV1 ovarian it was above 100 µM; with NCI-H460 lung, above 100 µM; in the experiment on RXF 393 renal it was above 100 µM. The values for the TGI with U251 CNS and in the experiment with UACC-62 melanoma were above 100 µM and 59.4 µM, respectively.

For `CCCCc1n(Cc2ccc3ccccc3c2)cc[n+]1Cc1ccc2ccccc2c1`, the GI50 with 786-0 renal was 1.52 µM; with IGROV1 ovarian, 0.732 µM; in the experiment with RXF 393 renal, 1.19 µM; in the experiment on UACC-62 melanoma, 0.705 µM. The TGI in the experiment with 786-0 renal was 2.97 µM; in the experiment on IGROV1 ovarian it was 2.26 µM; in the experiment with RXF 393 renal it was 2.49 µM; with UACC-62 melanoma, 2.08 µM.

With `Cc1cccc(N2C(=O)C(=O)C(c3nc4ccccc4s3)/C(=N/NC(=S)NN)C2=O)c1C` (stereo not given), the TGI with 786-0 renal, with A498 renal, in the experiment on HCC-2998 colon, in the experiment with IGROV1 ovarian, in the experiment on LOX IMVI melanoma and in the experiment on NCI-H460 lung was above 100 µM each time. For the same compound, the TGI in the experiment on RXF 393 renal, with U251 CNS and in the experiment on UACC-62 melanoma was above 100 µM in each case.

As for `CCC(C)C1NC(=O)C2CCCN2C(=O)CNC(=O)C(C)NC(=O)C(Cc2ccccc2)NC(=O)C(C(C)C)NC1=O` (stereo not given) (cyclo(GPIVFA); configuration not given here), the TGI with 786-0 renal, with A498 renal, in the experiment with HCC-2998 colon, in the experiment with IGROV1 ovarian, in the experiment with LOX IMVI melanoma and with NCI-H460 lung was above 100 µM each time. Also, the TGI in the experiment with RXF 393 renal, with U251 CNS and in the experiment on UACC-62 melanoma was above 100 µM each time.

As to `COc1cc2c(cc1OC)NC(=O)NC(Cc1ccc3c(c1)OCO3)CC2` (stereo not given), the TGI with 786-0 renal, in the experiment with HCC-2998 colon, in the experiment on HL-60(TB) leukemia, in the experiment on IGROV1 ovarian, in the experiment with LOX IMVI melanoma and in the experiment with NCI-H460 lung was above 100 µM in each case. Also, the TGI in the experiment on RXF 393 renal and in the experiment with UACC-62 melanoma was above 100 µM in each case.
